“And” between values parts separate entries of the source, which are not always exact repeats. Equal values may be shown once. Toxic doses and inconclusive results are not listed.
Test system: BDF1 mice, P388 leukemia ip, median survival T/C
Assay: NCI In Vivo Anticancer Drug Screen. Data for tumor model P388 Leukemia (intraperitoneal) in B6D2F1 (BDF1) mice
Conditions: endpoint: median survival time, higher = longer survival
How it was run: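 Compound-treated tumour-bearing mice were compared with vehicle-treated controls. Survival was recorded, and the value is the treated-group measurement divided by the control-group measurement (T/C).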

[1] = dose: 50.0 mg/kg/injection, schedule: Q01DX009 (ip), vehicle: saline
[2] = dose: 50.0 mg/kg/injection, schedule: Q04DX003 (ip), vehicle: saline
[3] = dose: 100.0 mg/kg/injection, schedule: Q01DX009 (ip), vehicle: saline
[4] = dose: 100.0 mg/kg/injection, schedule: Q04DX003 (ip), vehicle: saline
[5] = dose: 200.0 mg/kg/injection, schedule: Q01DX009 (ip), vehicle: saline
[6] = dose: 200.0 mg/kg/injection, schedule: Q04DX003 (ip), vehicle: saline
[7] = dose: 50.0 mg/kg/injection, schedule: Q01DX009 (ip), vehicle: saline with Tween-80
[8] = dose: 100.0 mg/kg/injection, schedule: Q01DX009 (ip), vehicle: saline with Tween-80
[9] = dose: 200.0 mg/kg/injection, schedule: Q01DX009 (ip), vehicle: saline with Tween-80
[10] = dose: 400.0 mg/kg/injection, schedule: Q01DX009 (ip), vehicle: saline with Tween-80
[11] = dose: 100.0 mg/kg/injection, schedule: Q01DX009 (ip), vehicle: Klucel (hydroxypropylcellulose) (HPC)
[12] = dose: 100.0 mg/kg/injection, schedule: Q04DX003 (ip), vehicle: Klucel (hydroxypropylcellulose) (HPC)
[13] = dose: 200.0 mg/kg/injection, schedule: Q01DX009 (ip), vehicle: Klucel (hydroxypropylcellulose) (HPC)
[14] = dose: 200.0 mg/kg/injection, schedule: Q04DX003 (ip), vehicle: Klucel (hydroxypropylcellulose) (HPC)
[15] = dose: 400.0 mg/kg/injection, schedule: Q04DX003 (ip), vehicle: Klucel (hydroxypropylcellulose) (HPC)
[16] = dose: 100.0 mg/kg/injection, schedule: Q01DX001 (ip), vehicle: Klucel (hydroxypropylcellulose) (HPC)
[17] = dose: 200.0 mg/kg/injection, schedule: Q01DX001 (ip), vehicle: Klucel (hydroxypropylcellulose) (HPC)
[18] = dose: 400.0 mg/kg/injection, schedule: Q01DX001 (ip), vehicle: Klucel (hydroxypropylcellulose) (HPC)
[19] = dose: 25.0 mg/kg/injection, schedule: Q01DX009 (ip), vehicle: saline with Tween-80
[20] = dose: 100.0 mg/kg/injection, schedule: Q04DX003 (ip), vehicle: saline with Tween-80
[21] = dose: 200.0 mg/kg/injection, schedule: Q04DX003 (ip), vehicle: saline with Tween-80
[22] = dose: 400.0 mg/kg/injection, schedule: Q01DX009 (ip), vehicle: saline
[23] = dose: 400.0 mg/kg/injection, schedule: Q04DX003 (ip), vehicle: saline with Tween-80
[24] = dose: 400.0 mg/kg/injection, schedule: Q04DX003 (ip), vehicle: saline
[25] = dose: 100.0 mg/kg/injection, schedule: Q04DX003 (ip), vehicle: alcohol
[26] = dose: 200.0 mg/kg/injection, schedule: Q04DX003 (ip), vehicle: alcohol
[27] = dose: 400.0 mg/kg/injection, schedule: Q04DX003 (ip), vehicle: alcohol

O=C(O)c1ccc2cc(O)ccc2c1
T/C (dose: 50.0 mg/kg/injection, schedule: Q01DX001 (ip), vehicle: saline with Tween-80): 100 % of control | T/C [1]: 116 % of control | T/C [2]: 109 % of control | T/C (dose: 100.0 mg/kg/injection, schedule: Q01DX001 (ip), vehicle: saline with Tween-80): 113 % of control | T/C [3]: 116 % of control | T/C [4]: 109 % of control | T/C (dose: 200.0 mg/kg/injection, schedule: Q01DX001 (ip), vehicle: saline with Tween-80): 100 % of control | T/C [5]: 104 % of control | T/C [6]: 100 % of control

c1cc[c]([Sn]([S][Sn]([c]2ccccc2)([c]2ccccc2)[c]2ccccc2)([c]2ccccc2)[c]2ccccc2)cc1
T/C [7]: 98 % of control | T/C [8]: 93 % of control | T/C [9]: 114 % of control | T/C [10]: 86 % of control

O=C(Nc1cc(Cl)ccc1Cl)c1ccccc1Cl
T/C [11]: 100 % of control | T/C [12]: 104 % of control | T/C [13]: 113 % of control | T/C [14]: 104 % of control | T/C [15]: 100 % of control

COc1ccc2c(c[n+](C)c3c4cc5c(cc4ccc23)OCO5)c1OC
T/C (dose: 5.0 mg/kg/injection, schedule: Q01DX010 (ip), vehicle: saline): 90 % of control | T/C (dose: 10.0 mg/kg/injection, schedule: Q01DX010 (ip), vehicle: saline): 100 % of control

CC(CCC(C)OS(C)(=O)=O)OS(C)(=O)=O (stereo not drawn)
T/C (dose: 2.0 mg/kg/injection, schedule: Q01DX010 (ip), vehicle: saline): 100 % of control | T/C (dose: 4.0 mg/kg/injection, schedule: Q01DX010 (ip), vehicle: saline): 95 % of control | T/C (dose: 8.0 mg/kg/injection, schedule: Q01DX010 (ip), vehicle: saline): 118 % of control | T/C (dose: 16.0 mg/kg/injection, schedule: Q01DX010 (ip), vehicle: saline): 122 % of control

COC(OC)c1[nH]c(=S)[nH]c(=O)c1Cc1cc(C)ccc1C
T/C (dose: 50.0 mg/kg/injection, schedule: Q04DX003 (ip), vehicle: Klucel (hydroxypropylcellulose) (HPC)): 95 % of control | T/C [16]: 104 % of control | T/C [12]: 100 % of control | T/C [17]: 104 % of control | T/C [14]: 95 % of control | T/C [18]: 109 % of control

OCCOCC(F)(F)F
T/C [19]: 98 % of control | T/C [7]: 105 % of control | T/C [8]: 88 % of control and 108 % of control | T/C [3]: 122 % of control | T/C [20]: 100 % of control | T/C [4]: 100 % of control | T/C [5]: 122 % of control | T/C [21]: 123 % of control | T/C [6]: 100 % of control | T/C [22]: 111 % of control | T/C [23]: 88 % of control | T/C [24]: 90 % of control

CCOc1nc(=O)n(C2CCOC2=O)cc1F (stereo not drawn)
T/C [16]: 100 % of control | T/C [17]: 100 % of control | T/C [18]: 104 % of control

CC(=O)N(C)c1ccc(/C=C2\C=Cc3ccccc32)cc1
T/C [8]: 100 % of control | T/C [20]: 90 % of control | T/C [9]: 95 % of control | T/C [21]: 100 % of control

CCN(CC)CCCNc1cccc2c(C)cc(OC)nc12
T/C [7]: 97 % of control | T/C [8]: 114 % of control

COc1ccc2nc3cc(Cl)ccc3c(NCCNCCNCCNc3c4ccc(Cl)cc4nc4ccc(OC)cc34)c2c1
T/C (dose: 12.5 mg/kg/injection, schedule: Q01DX009 (ip), vehicle: saline with Tween-80): 151 % of control | T/C [19]: 171 % of control | T/C [7]: 161 % of control

O=S(=O)(N=C1C(Cl)=C(Cl)C(=NS(=O)(=O)c2ccccc2)C(Cl)=C1Cl)c1ccccc1
T/C [11]: 104 % of control | T/C [12]: 100 % of control | T/C [13]: 86 % of control | T/C [14]: 100 % of control | T/C (dose: 400.0 mg/kg/injection, schedule: Q01DX009 (ip), vehicle: Klucel (hydroxypropylcellulose) (HPC)): 100 % of control | T/C [15]: 100 % of control

C#CC1(O)CC[C@H]2[C@@H]3CCC4=CCCC[C@@H]4[C@H]3CC[C@@]21C (stereo partly drawn)
T/C [3]: 95 % of control | T/C [25]: 100 % of control | T/C [5]: 90 % of control | T/C [26]: 95 % of control | T/C [22]: 86 % of control | T/C [27]: 105 % of control

COc1cc(-c2ccc(Nc3ccccc3C(=O)O)c(OC)c2)ccc1N
T/C [19]: 110 % of control | T/C (dose: 33.0 mg/kg/injection, schedule: Q01DX009 (ip), vehicle: saline with Tween-80): 109 % of control | T/C (dose: 75.0 mg/kg/injection, schedule: Q01DX009 (ip), vehicle: saline with Tween-80): 163 % of control

CCOC(=O)/C(=N\O)C1=CSC2=NNC(C)(C)N12
T/C [7]: 95 % of control | T/C [9]: 92 % of control

O=NN(CCCl)C(=O)NC1CCC(=O)NC1=O (stereo not drawn)
T/C (dose: 3.13 mg/kg/injection, schedule: Q04DX003 (ip), vehicle: saline with Tween-80): 272 % of control | T/C (dose: 4.0 mg/kg/injection, schedule: Q04DX003 (ip), vehicle: saline with Tween-80): 230 % of control | T/C (dose: 6.0 mg/kg/injection, schedule: Q04DX003 (ip), vehicle: saline with Tween-80): 230 % of control | T/C (dose: 6.25 mg/kg/injection, schedule: Q04DX003 (ip), vehicle: saline with Tween-80): 272 % of control | T/C (dose: 9.0 mg/kg/injection, schedule: Q04DX003 (ip), vehicle: gum acacia): 250 % of control | T/C (dose: 9.0 mg/kg/injection, schedule: Q04DX003 (ip), vehicle: saline with Tween-80): 230 % of control | T/C (dose: 12.5 mg/kg/injection, schedule: Q04DX003 (ip), vehicle: saline with Tween-80): 104 % of control | T/C (dose: 20.0 mg/kg/injection, schedule: Q04DX003 (ip), vehicle: gum acacia): 112 % of control

N\C([S-])=N/N=C\C(=N/N=C(\N)[S-])C(O)C(O)C(O)CO.[Rh+2] (stereo not drawn)
T/C [16]: 100 % of control | T/C [17]: 104 % of control | T/C [18]: 109 % of control

COc1cc(OC)cc(C2=NNc3n[nH]c(=S)n3N2)c1
T/C [20]: 100 % of control | T/C [21]: 95 % of control | T/C [23]: 100 % of control

CC1(C)N=C(N)N=C(N)N1c1cccc(CN)c1
T/C (dose: 12.5 mg/kg/injection, schedule: Q04DX003 (ip), vehicle: saline): 90 % of control | T/C (dose: 25.0 mg/kg/injection, schedule: Q01DX009 (ip), vehicle: saline): 100 % of control | T/C (dose: 25.0 mg/kg/injection, schedule: Q04DX003 (ip), vehicle: saline): 100 % of control | T/C [1]: 95 % of control and 105 % of control | T/C [2]: 100 % of control | T/C [3]: 90 % of control and 110 % of control | T/C [4]: 104 % of control

C[n+]1c(/C=C/c2ccc(N(CCC(=O)O)CCC(=O)O)cc2)ccc2cc(Cl)ccc21
T/C (dose: 12.5 mg/kg/injection, schedule: Q01DX001 (ip), vehicle: saline with Tween-80): 109 % of control | T/C (dose: 25.0 mg/kg/injection, schedule: Q01DX001 (ip), vehicle: saline with Tween-80): 88 % of control

CCN1CCCC(Nc2nc(C(Cl)(Cl)Cl)nc3cc(Cl)ccc23)C1 (stereo not drawn)
T/C [19]: 109 % of control | T/C [7]: 113 % of control | T/C [8]: 104 % of control

CCOC(=O)C(C)(C)CSC(C)(C)C(=O)OCC
T/C [4]: 90 % of control | T/C [6]: 90 % of control | T/C [24]: 95 % of control

NC(=O)C(O)C(Br)(Br)Br (stereo not drawn)
T/C [3]: 116 % of control | T/C [4]: 95 % of control | T/C [5]: 108 % of control | T/C [6]: 104 % of control | T/C [24]: 100 % of control

CC(=O)Nc1ccc(C)c([N+](=O)[O-])c1
T/C [1]: 92 % of control | T/C [3]: 97 % of control | T/C [4]: 99 % of control | T/C [5]: 118 % of control | T/C [6]: 100 % of control | T/C [24]: 90 % of control

CC(C)COC(=O)CN(CC(=O)OCC(C)C)c1ccccc1
T/C [8]: 95 % of control | T/C [9]: 100 % of control | T/C [10]: 110 % of control

CC(Br)C(=O)NC(Cc1ccccc1)C(=O)O (stereo not drawn)
T/C [3]: 95 % of control | T/C [25]: 100 % of control | T/C [20]: 118 % of control | T/C [5]: 100 % of control | T/C [26]: 104 % of control | T/C [21]: 100 % of control | T/C [22]: 104 % of control | T/C [27]: 109 % of control | T/C [23]: 109 % of control

— PubChem BioAssay AID328 (DTP/NCI, 2004)
